Assay [1] can be described thus: Inhibition of yeast alpha-glucosidase using p-nitrophenyl-alpha-D-glucopyranoside as substrate preincubated with enzyme for 10 mins followed by substrate addition measured after 20 mins by spectrophotometric method. The arrangement: species or system Saccharomyces cerevisiae.
Assay [2] in a line: Non-competitive inhibition of yeast alpha-glucosidase using p-nitrophenyl-alpha-D-glucopyranoside as substrate by Lineweaver-Burk double reciprocal plot analysis. The arrangement: species or system Saccharomyces cerevisiae.
Assay [3] concerns Saccharomyces cerevisiae. The assay is described as follows: Non-competitive inhibition of yeast alpha-glucosidase assessed as decrease in Vmax with constant Km using p-nitrophenyl-alpha-D-glucopyranoside as substrate by Lineweaver-Burk double reciprocal plot analysis.

Activity calls are given as the source filed them. The rule behind the calls is not given here. Bounds are passed on as bounds.

The compound `CCCCCCCCCCCCCCCC1=C(O)C(=O)C2=C(Oc3cc(O)c4c(c3C2(C)C)O[C@@H](c2ccc(O)c(O)c2)[C@H](O)C4)C1=O` yielded an IC50 in assay [1] of 1400 nM.

For `O=C(CCc1ccc(O)cc1)c1c(O)cc(O)c2c(C(=O)c3ccc(O)cc3O)c(-c3ccc(O)cc3)oc12`, in assay [2], the affinity corresponds to a Ki of 3.4 µM. In assay [1], this compound had an IC50 of 400 nM. Also, the inhibition entry in assay [3] is “Active”. `CCCCCCCCCCCC1=C(O)C(=O)C2=C(Oc3cc(O)c4c(c3C2(C)C)O[C@@H](c2ccc(O)c(O)c2)[C@H](O)C4)C1=O` had an IC50 in assay [1] of 2000 nM.

Take `O=C(/C=C/c1ccc2oc(-c3ccc(O)cc3)c(C(=O)c3ccc(O)cc3O)c2c1)c1ccc(O)cc1O`: the IC50 in assay [1] came to 3200 nM. Same read-out and setting: to `CCCCCCCCCCCCCC1=C(O)C(=O)C2=C(Oc3cc(O)c4c(c3C2(C)C)O[C@@H](c2ccc(O)c(O)c2)[C@H](O)C4)C1=O` belongs 1600 nM. Take `COc1ccc(-c2coc3cc4c(c(OC)c3c2=O)OCO4)cc1OC`: in assay [1], the IC50 is 178000 nM. On the same count and under the same terms, next, `O=C(/C=C/c1ccc2c(c1)[C@@H](C(=O)c1ccc(O)cc1O)[C@H](c1ccc(O)cc1)O2)c1ccc(O)cc1O`: 5600 nM.

Regarding `C[C@H]1O[C@H](O[C@H]2[C@H](O)[C@@H](O)[C@@H](O[C@H]3[C@H](O)[C@@H](O)C(O)O[C@@H]3CO)O[C@@H]2CO)[C@H](O)[C@@H](O)[C@@H]1N[C@H]1C=C(CO)[C@@H](O)[C@H](O)[C@H]1O` (stereo partly drawn) [ACARBOSE], the IC50 in assay [1] is 93600 nM.

Compound `O=C(/C=C/c1ccc(O)cc1)c1c(O)cc(O)c2c(C(=O)c3ccc(O)cc3O)c(-c3ccc(O)cc3)oc12` registered an IC50 in assay [1] of 1300 nM. In assay [1], `COc1ccc(-c2coc3cc4c(c(OC)c3c2=O)OCO4)cc1` showed an IC50 of over 200000 nM. Still for that read-out and setting: to `O=C(/C=C/c1ccc2c(c1)[C@H](C(=O)c1ccc(O)cc1O)[C@@H](c1ccc(O)cc1)O2)c1ccc(O)cc1O` belongs 2300 nM. `CCCCCCCCCCCC1=C(O)C(=O)C=C(O)C1=O` [EMBELIN] came in with an IC50 in assay [1] of 2400 nM. Still for that read-out and setting: to `COc1ccc(C(=O)[C@@H](c2coc3cc(O)ccc3c2=O)C(c2ccc(O)cc2)c2ccc(O)cc2)c(O)c1` belongs 6100 nM; to `CCCCCCCCCCCCCC1=C(O)C(=O)C=C(O)C1=O` [Rapanone], 1800 nM. On the same count and under the same terms, next, `O=C(/C=C/c1ccc(O)c([C@@H]2C(=O)c3c(O)cc(O)cc3O[C@H]2c2ccc(O)cc2)c1)c1ccc(O)cc1O`: 2500 nM.

Compound `O=C(C[C@@H]1C(=O)c2ccc(O)cc2O[C@H]1c1ccc(O)cc1)c1ccc(O)cc1O` came in with an IC50 in assay [1] of 26600 nM.

Broadly, the IC50 is the concentration that inhibits the measured activity by half. Broadly, the Ki is the equilibrium dissociation constant of an inhibitor or competing ligand from its target. High values mean weaker binding, low ones tighter binding.

Values taken from ChEMBL document CHEMBL5120781, “α-Glucosidase Inhibitors from the Stems of Knema globularia” (J Nat Prod, 2022).
